Patent US8178658B2 (Dow AgroSciences, LLC, priority 2008, dated 2012)
Where two headings read alike, the source gives them in different places.

Columns and labels:
[1] = tested on: beet armyworm (BAW; Spodoptera exigua: Lepidoptera); assay: 128-well diet tray assay on beet armyworm (BAW 50); assay type: in vivo; details: for pest or weed control at 50 µg/cm2, 50 µg/cm2: Spodoptera exigua, 144 h, read-out: BAW 50 ug/cm2
Method in brief: (§1)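 In the HTS format, eggs were placed on diet surface-treated with 12 μg compound per well, held dark at 29° C, and scored for mortality at 6 d (mean of six replicates). The tray format used three to five second instar larvae on diet treated at 50 μg/cm^2, 25° C, 14:10 light-dark, six days, averaged over eight wells.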

[2] = tested on: beet armyworm (BAW; Spodoptera exigua: Lepidoptera); assay: 96-well microtiter plate-based high throughput (HTS) diet bioassay on beet armyworm (BAW HTS); assay type: in vivo; details: for pest or weed control at 12 µg/well, 12 µg/well: Spodoptera exigua, 144 h, read-out: BAW HTS
Method in brief: as §1

[3] = 128-well diet tray assay, 50 μg/cm^2 of test compound on diet, second instar BAW larvae, mortality class
[4] = 96-well HTS diet bioassay, BAW eggs, 12 μg test compound per well, mortality at 6 d post-treatment, mortality class
[5] = 96-well microtiter plate HTS diet assay, 12 μg test compound per well, BAW eggs, mortality at 6 d post-treatment, mortality class
[6] = 96-well HTS diet assay, BAW eggs, 12 μg test compound per well, mortality at 6 d post-treatment, mortality class

SMILES	BAW 50 ug/cm2 [1, 3]	BAW HTS [2, 4]	BAW HTS [2, 5]	pest or weed control at 50 µg/cm2, 50 µg/cm2 [1] [%]	pest or weed control at 12 µg/well, 12 µg/well [2] [%]	pest or weed control at 50 µg/cm2, 50 µg/cm2 ([1]; 128-well diet tray assay, second instar BAW larvae, 50 μg/cm^2 of test compound on diet, mortality class) [%]	pest or weed control at 12 µg/well, 12 µg/well [2, 6] [%]	BAW HTS [2, 6]
CCOC1C(OC)C(C)OC(ON=Cc2ccc(-c3ncn(-c4ccc(Cl)nn4)n3)cc2)C1OC (stereo not drawn) [Compound 117]	B (either (1) the compound was tested and less than 50 percent mortality was observed or (2) the compound was not tested)	B (either (1) the compound was tested and less than 50 percent mortality was observed or (2) the compound was not tested)	B (either (1) the compound was tested and less than 50 percent mortality was observed or (2) the compound was not tested)	–	–	–	–	–
COc1ccc(-n2cnc(-c3ccc(C=NOC4OC(C)C(OC)C(OC)C4OC)cc3)c2)cc1 (stereo not drawn) [Compound 44]	A (the compound was tested and at least 50 percent mortality was observed)	B (either (1) the compound was tested and less than 50 percent mortality was observed or (2) the compound was not tested)	B (either (1) the compound was tested and less than 50 percent mortality was observed or (2) the compound was not tested)	–	–	–	–	–
CO[C@@H]1[C@@H](OC)[C@H](C)O[C@H](OC(=O)Nc2ccc(-n3cnc(-c4ccc(C(F)(F)F)cc4)n3)cc2Cl)[C@@H]1OC [Compound 190, {2-chloro-4-[3-(4-trifluoromethylphenyl)-[1,2,4]triazol-1-yl]-phenyl}-carbamic acid (2R,3R,4R,5S,6S)-3,4,5-trimethoxy-6-methyl-tetrahydropyran-2-yl ester]	A (the compound was tested and at least 50 percent mortality was observed)	–	A (the compound was tested and at least 50 percent mortality was observed)	> 50	> 50	–	–	–
CO[C@@H]1[C@@H](OC)[C@H](C)O[C@@H](O/N=C/c2ccc(-c3ccnc(-c4ccc(OC(F)(F)F)cc4)c3)cc2)[C@@H]1OC [Compound 132]	A (the compound was tested and at least 50 percent mortality was observed)	–	B (either (1) the compound was tested and less than 50 percent mortality was observed or (2) the compound was not tested)	–	–	> 50	< 50	–
CCOC1C(OC)C(C)OC(OC(=O)Nc2ccc(C3=NC(c4ccc(OC(F)(F)F)cc4)CO3)cc2)C1OC (mixture of isomers) [Compound 247]	A (the compound was tested and at least 50 percent mortality was observed)	–	B (either (1) the compound was tested and less than 50 percent mortality was observed or (2) the compound was not tested)	–	–	–	–	B (either (1) the compound was tested and less than 50 percent mortality was observed or (2) the compound was not tested)
COC1C(C)OC(ON=Cc2ccc(-c3ncn(-c4ccc(OC(F)(F)C(F)(F)F)cc4)n3)cc2)C(OC)C1OC (stereo not drawn) [Compound 89]	A (the compound was tested and at least 50 percent mortality was observed)	B (either (1) the compound was tested and less than 50 percent mortality was observed or (2) the compound was not tested)	B (either (1) the compound was tested and less than 50 percent mortality was observed or (2) the compound was not tested)	–	–	–	–	–
CCO[C@@H]1[C@@H](OC)[C@H](C)O[C@@H](OC(=O)Nc2ccc(-n3cnn(-c4ccc(OC(F)(F)F)cc4)c3=O)cc2)[C@@H]1OC [Compound 228]	B (either (1) the compound was tested and less than 50 percent mortality was observed or (2) the compound was not tested)	–	B (either (1) the compound was tested and less than 50 percent mortality was observed or (2) the compound was not tested)	–	–	–	–	B (either (1) the compound was tested and less than 50 percent mortality was observed or (2) the compound was not tested)
CCOC1C(OC)C(C)OC(ON=Cc2ccc(-c3ncn(-c4ccc(C(F)(F)F)cc4Cl)n3)cc2)C1OC (stereo not drawn) [Compound 115]	A (the compound was tested and at least 50 percent mortality was observed)	B (either (1) the compound was tested and less than 50 percent mortality was observed or (2) the compound was not tested)	B (either (1) the compound was tested and less than 50 percent mortality was observed or (2) the compound was not tested)	–	–	–	–	–
COC1C(C)OC(ON=Cc2ccc(-c3ccn(-c4ccc(SC(F)(F)F)cc4)n3)cc2)C(OC)C1OC (stereo not drawn) [Compound 6]	A (the compound was tested and at least 50 percent mortality was observed)	B (either (1) the compound was tested and less than 50 percent mortality was observed or (2) the compound was not tested)	B (either (1) the compound was tested and less than 50 percent mortality was observed or (2) the compound was not tested)	–	–	–	–	–
COC1C(C)OC(ON=Cc2ccc(-c3nc(-c4ccc(Cl)cc4)n[nH]3)cc2)C(OC)C1OC (stereo not drawn) [Compound 96]	A (the compound was tested and at least 50 percent mortality was observed)	B (either (1) the compound was tested and less than 50 percent mortality was observed or (2) the compound was not tested)	B (either (1) the compound was tested and less than 50 percent mortality was observed or (2) the compound was not tested)	–	–	–	–	–
COc1ccc(-c2nccc(-c3ccc(NC(=O)O[C@@H]4O[C@@H](C)[C@H](OC)[C@@H](OC)[C@H]4OC)cc3)n2)cc1 [Compound 234, {4-[2-(4-methoxyphenyl)-pyrimidin-4-yl]-phenyl}-carbamic acid (2S,3R,4R,5S,6S)-3,4,5-trimethoxy-6-methyl-tetrahydropyran-2-yl ester]	B (either (1) the compound was tested and less than 50 percent mortality was observed or (2) the compound was not tested)	–	B (either (1) the compound was tested and less than 50 percent mortality was observed or (2) the compound was not tested)	< 50	< 50	–	–	–
COC1C(C)OC(ON=Cc2ccc(-c3cc(-c4ccc(OC(F)(F)F)cc4)ncn3)cc2)C(OC)C1OC (stereo not drawn) [Compound 140]	A (the compound was tested and at least 50 percent mortality was observed)	–	B (either (1) the compound was tested and less than 50 percent mortality was observed or (2) the compound was not tested)	–	–	–	–	B (either (1) the compound was tested and less than 50 percent mortality was observed or (2) the compound was not tested)
COC1C(C)OC(ON=Cc2ccc(-c3nccc(-c4ccc(OC(F)(F)F)cc4)n3)cc2)C(OC)C1OC (stereo not drawn) [Compound 138]	A (the compound was tested and at least 50 percent mortality was observed)	–	A (the compound was tested and at least 50 percent mortality was observed)	–	–	–	–	A (the compound was tested and at least 50 percent mortality was observed)
COC1C(C)OC(ON=Cc2ccc(-c3cn(-c4ccc(OC(F)(F)F)cc4)cn3)c(F)c2F)C(OC)C1OC (stereo not drawn) [Compound 49]	A (the compound was tested and at least 50 percent mortality was observed)	B (either (1) the compound was tested and less than 50 percent mortality was observed or (2) the compound was not tested)	B (either (1) the compound was tested and less than 50 percent mortality was observed or (2) the compound was not tested)	–	–	–	–	–
CCCCOc1ccc(-c2cc(-c3ccc(C=NOC4OC(C)C(OC)C(OC)C4OC)cc3)no2)cc1 (stereo not drawn) [Compound 61]	A (the compound was tested and at least 50 percent mortality was observed)	A (the compound was tested and at least 50 percent mortality was observed)	A (the compound was tested and at least 50 percent mortality was observed)	–	–	–	–	–
COC1C(C)OC(ON=Cc2ccc(-c3nn(-c4ccc(F)cc4F)c(=O)[nH]3)cc2)C(OC)C1OC (stereo not drawn) [Compound 100]	A (the compound was tested and at least 50 percent mortality was observed)	B (either (1) the compound was tested and less than 50 percent mortality was observed or (2) the compound was not tested)	B (either (1) the compound was tested and less than 50 percent mortality was observed or (2) the compound was not tested)	–	–	–	–	–
COC1C(C)OC(ON=C(C)c2ccc(F)c(-c3cn(-c4ccc(OC(F)(F)F)cc4)cn3)c2)C(OC)C1OC (stereo not drawn) [Compound 168]	A (the compound was tested and at least 50 percent mortality was observed)	–	A (the compound was tested and at least 50 percent mortality was observed)	–	–	–	–	A (the compound was tested and at least 50 percent mortality was observed)
CCOC(=O)C1C(C)C(c2ccc(/C=N/O[C@@H]3O[C@@H](C)[C@H](OC)[C@@H](OC)[C@H]3OC)cc2)=NN1c1ccc(OC(F)(F)F)cc1 (stereo partly drawn) [Compound 56]	A (the compound was tested and at least 50 percent mortality was observed)	A (the compound was tested and at least 50 percent mortality was observed)	A (the compound was tested and at least 50 percent mortality was observed)	–	–	–	–	–
COc1ccc(-n2cc(-c3ccc(C=NOC4OC(C)C(OC)C(OC)C4OC)cc3)nn2)cc1 (stereo not drawn) [Compound 77]	B (either (1) the compound was tested and less than 50 percent mortality was observed or (2) the compound was not tested)	B (either (1) the compound was tested and less than 50 percent mortality was observed or (2) the compound was not tested)	B (either (1) the compound was tested and less than 50 percent mortality was observed or (2) the compound was not tested)	–	–	–	–	–
